According to patent publication US11634425B2, “Pharmaceutical compounds” (priority 2019, dated 2023):
In brackets after ≈: the same amount, converted by molar mass. Where two headings read alike, the source gives them in different places.

Tests used:
Cell cytotoxicity (CC50) = assay type: cell-based; conditions: human; mean of at least two experiments
In short: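 Values are means of ≥2 independent runs, rounded to whole units, from 4-parameter variable-slope curve fits. Toxicity measured in Hep-G2 cells run alongside RSV plaque-reduction assays.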

RSV A2 = test: RSV plaque reduction assay; assay type: cell-based, respiratory syncytial virus (RSV); conditions: human respiratory syncytial virus, HepG2, Hep-G2 cells, mean of at least two experiments
In short: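 EC50 is the 50% reduction in immunostained plaque count versus virus-control wells, interpolated from variable-slope 4-parameter fits and averaged over at least two runs. Hep-G2 cells were infected with 100 PFU/well RSV A2 premixed with compound, with the inoculum removed after 2 h. Incubation continued at 37 °C for 2 days under a CMC overlay with compound.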

in vitro [1] = assay type: in vitro ADME; conditions: microsomes, pH 7.4, 1 μM compound, 0.5 mg/mL protein, read-out: Liver Microsomal Stability t1/2
In short: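 Pooled liver microsomes (0.5 mg/mL protein) in 0.1 M phosphate pH 7.4 with 1 μM compound and 1 mM NADPH at 37° C., sampled at 0–45 min; minus-NADPH control at 45 min. Acetonitrile quench, LC-MS/MS; t1/2 and CLint from ln peak-area ratio vs time slope.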

Thermodynamic solubility = assay type: physicochemical; conditions: aqueous buffer, thermodynamic from solid; typically phosphate buffered saline pH 7.4, ambient temperature overnight
Experimental: Test compound (2.5 mg of solid; n=1) was weighed in an amber glass vial and buffer (0.5 mL) was added (typically phosphate buffered saline pH 7.4). The solution was agitated at ambient temperature overnight using a vial roller system. The solution was then filtered (0.45 μm pore size; without pre-saturation). Duplicate aliquots (50 μL) are sampled from the filtrate and diluted with one volume of Milli-Q water and methanol (1:1 v/v) before analysis by HPLC-UV. A standard was prepared in DMSO at 10 mg/mL (n=1) which was then diluted 10-fold in Milli-Q water and methanol (1:1 v/v) to give a 1 mg/mL solution. The concentration of test compound in the filtrate was quantified relative to the concentration standard. Analysis was performed using a gradient HPLC-MS system.

in vitro [2] = assay type: in vitro ADME; conditions: hepatocytes, 3 μM compound, read-out: Liver Hepatocyte Stability t1/2
Experimental: Compounds were subjected to the following assays to investigate liver microsomal stability and hepatocyte stability.
Hepatocyte Incubation: Experimental Procedure
Cryopreserved pooled hepatocytes were purchased from a reputable commercial supplier and stored in liquid nitrogen prior to use. Williams E media supplemented with 2 mM L-glutamine and 25 mM HEPES and test compound (final substrate concentration 3 μM; final DMSO concentration 0.25%) are pre-incubated at 37° C. prior to the addition of a suspension of cryopreserved hepatocytes (final cell density 0.5×10^6 viable cells/mL in Williams E media supplemented with 2 mM L-glutamine and 25 mM HEPES) to initiate the reaction. The final incubation volume is 500 μL. Two control compounds were included with each species, alongside appropriate vehicle control. The reactions are stopped by transferring 50 μL of incubate to 100 μL acetonitrile containing internal standard at the appropriate time points. Samples were removed at 6 time points (0, 5, 15, 30, 45 and 60 min) over the course of a 60 min experiment. The termination plates are centrifuged at 2500 rpm at 4° C. for 30 min to precipitate the protein. Following protein precipitation, the sample supernatants were combined in cassettes of up to 4 compounds and analysed using generic LC-MS/MS conditions. From a plot of ln peak area ratio (compound peak area/internal standard peak area) against time, the gradient of the line is determined. Subsequently, half-life (t1/2) and intrinsic clearance (CLint) were calculated.

in vivo = assay type: in vivo; conditions: male Beagle dog
Experimental: The pharmacokinetics of compounds were studied in vivo in dogs at doses of 0.5 mg/kg (IV) and 4 mg/kg (PO).
Male Beagle dogs were treated with experimental compounds via intravenous administration (n=2; 0.5 mg/kg) or oral administration (n=2; 3 or 4 mg/kg). Compounds were formulated as a solution in 20% dimethylacetamide/80% (2-hydroxypropyl)-β-cyclodextrin (20% w/v) (IV administration) or a solution in 10% dimethylacetamide/90% (2-hydroxypropyl)-β-cyclodextrin (20% w/v) (PO administration). […] Serial blood samples were collected from the jugular vein at 0.03, 0.08, 0.25, 0.5, 1, 2, 4, 6, 8 and 24 h post IV dosing of compound, and at 0.08, 0.25, 0.5, 1, 2, 4, 6, 8 and 24 h post oral dosing of compound, and plasma was prepared by centrifugation and stored immediately at −80° C. Samples were subsequently thawed, prepared for analysis by protein precipitation with acetonitrile, and analysed by tandem LCMS using electrospray ionisation using a matrix-matched calibration curve. PK parameters were calculated from the resulting data.

RSV = conditions: Antimicrobial Agents and Chemotherapy, September 2007, 3346-3353; cited from earlier work

Compound | CC50 (Cell cytotoxicity (CC50)) | EC50 (RSV A2) | half-life at 1 μM (in vitro [1]; dog) | half-life at 1 μM (in vitro [1]; human) | half-life at 1 μM (in vitro [1]; rat) | solubility thermodynamic (Thermodynamic solubility) | half-life at 3 μM (in vitro [2]; dog) | half-life at 3 μM (in vitro [2]; human) | half-life at 3 μM (in vitro [2]; rat) | Vd (in vivo; in vivo, IV 0.5 mg/kg) | clearance (in vivo; in vivo, IV 0.5 mg/kg) | Cmax (in vivo; in vivo, IV 0.5 mg/kg / PO 3 or 4 mg/kg study) | half-life (in vivo; in vivo, IV 0.5 mg/kg, read-out: IV t1/2 (converted)) | AUC(0-t) (in vivo; in vivo, PO 3 or 4 mg/kg, read-out: PO AUClast) | half-life (in vivo; in vivo, PO 3 or 4 mg/kg, read-out: PO t1/2 (converted)) | C 8 h (in vivo; 8 h, IV 0.5 mg/kg / PO 3 or 4 mg/kg study) | F (in vivo; IV 0.5 mg/kg, PO 3 or 4 mg/kg) | anti-RSV activity (RSV)
Cc1nc2ccc(Cl)nn2c1C(=O)N[C@H]1N=C(c2ccccc2)c2cccc(F)c2NC1=O [Example 20, 6-Chloro-N-[(3S)-9-fluoro-2-oxo-5-phenyl-1,3-dihydro-1,4-benzodiazepin-3-yl]-2-methylimidazo[1,2-b]pyridazine-3-carboxamide] | > 25 µM | 0.114 µM | > 2.33 h | > 2.33 h | 1.68 h | 3.84 µM (≈ 1.78 µg/mL) | 2.2 h | 2.18 h | 2.92 h | 1.2 L/kg | 0.096 L/h/kg | 3.85 µg/mL | 10.3 h | 43.7 µg·h/mL | 19.2 h | 1.581 µg/mL | 118% | 
Cc1nc2ccc(Cl)nn2c1C(=O)N[C@H]1N=C(c2ccccc2)c2ccccc2NC1=O [Example 21, 6-Chloro-2-methyl-N-[(3S)-2-oxo-5-phenyl-1,3-dihydro-1,4-benzodiazepin-3-yl]imidazo[1,2-b]pyridazine-3-carboxamide] | > 25 µM | 0.147 µM | 2.95 h | 2.15 h | 1.04 h | 4.64 µM (≈ 2.06 µg/mL) | 2.55 h | 2.52 h | 1.5 h |  |  |  |  |  |  |  |  | 
O=C(Nc1ccccc1F)N[C@H]1N=C(c2ccccc2)c2ccccc2NC1=O [RSV604] |  |  |  |  |  |  |  |  |  |  |  |  |  |  |  |  |  | sub-micromolar
